Calls of active or inactive are those of the source.
System: not listed separately
Assay: cytotoxicity toward NIH3T3 fibroblasts, dose response, counter-screen, cell-based, ATP luminescence, mouse fibroblasts (AID 2010);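 also: cells exposed to compound for about 90 hours before reading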
Assay type: functional
Details: not given

| SMILES | EC50 |
| --- | --- |
| Cc1ccc(C)c(NC(=N)Nc2nc(C)cc(C)n2)c1 | > 60 µM (inconclusive) |
| CC1=C(C(=O)N2CCc3ccccc32)C2(CCC(C)CC2)OC1=O (configuration not stated) | > 60 µM (not active) |
| CCCCSc1nc2sc3c(c2c(=O)n1-c1ccccc1)CCN(C)C3 | > 60 µM (not active) |
| Cc1ccc(N/C(SCc2ccccc2C)=C(/C#N)C(=O)NCc2ccco2)cc1C | > 60 µM (not active) |
| C=CCc1cc(Cl)ccc1OCCNCCN1CCOCC1 | > 60 µM (not active) |

Biological target: Cytochrome P450 3A4 (Homo sapiens, UniProt P08684);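 also: CYP3A4 tested as one member of a cytochrome P450 panel screen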
Details: not given

Chain of Cytochrome P450 3A4 (P08684 whole entry): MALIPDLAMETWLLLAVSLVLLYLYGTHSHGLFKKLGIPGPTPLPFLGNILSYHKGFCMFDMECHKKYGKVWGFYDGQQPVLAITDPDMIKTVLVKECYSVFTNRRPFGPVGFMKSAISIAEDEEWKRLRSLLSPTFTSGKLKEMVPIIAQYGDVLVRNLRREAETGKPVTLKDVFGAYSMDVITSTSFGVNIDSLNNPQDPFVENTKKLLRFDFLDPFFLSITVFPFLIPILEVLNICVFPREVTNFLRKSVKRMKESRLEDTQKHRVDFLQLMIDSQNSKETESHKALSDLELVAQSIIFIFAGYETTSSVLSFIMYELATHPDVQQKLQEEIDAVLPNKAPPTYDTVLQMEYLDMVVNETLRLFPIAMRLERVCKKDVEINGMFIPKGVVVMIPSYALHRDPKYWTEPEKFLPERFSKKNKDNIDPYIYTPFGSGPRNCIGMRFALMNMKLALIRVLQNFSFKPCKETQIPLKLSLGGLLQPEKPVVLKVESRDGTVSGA

| SMILES | AC50 |
| --- | --- |
| CCCc1ccc(-c2cc(C(=O)NN3CCOCC3)c3ccccc3n2)cc1 | 12.6 µM (inconclusive) |
| O=C1CCCC=C1[C@@H](O)COCc1ccccc1 | 3.16 µM (inconclusive) |
| CN(Cc1ccco1)c1ncnc2ccc(-c3ccccc3C#N)cc12 | 31.6 µM (inconclusive) |
| Cc1cc(C)c(S(=O)(=O)N2CCN(c3ccc([N+](=O)[O-])c(NCC4CCCO4)c3)CC2)c(C)c1 (configuration not stated) | 3.55 µM (inconclusive) |
| Cn1c(=O)c(-c2ccccc2)nc2cncnc21 | 12.6 µM (inconclusive) |
| CNC(=O)[C@@H]1O[C@@H](n2cnc3c(NCc4ccc(N)cc4)ncnc32)[C@@H](O)[C@H]1O | 25.1 µM (inconclusive) |
| CC[C@]1(O)C[C@@H]2CN(CCc3c([nH]c4ccccc34)[C@](C(=O)OC)(c3cc4c(cc3OC)N(C=O)[C@H]3[C@@](O)(C(=O)OC)[C@H](C(=O)OC)[C@@]5(CC)C=CCN6CC[C@]43[C@H]65)C2)C1 | 25.1 µM (inconclusive) |
| O=C(Nc1ccc(Cl)cc1)OCCn1nnnc1C(c1ccccc1Cl)N1CCOCC1 (configuration not stated) | 0.891 µM (inconclusive) |
| CC(=O)NCCNc1nc(-c2ccccc2C(F)(F)F)nc2ccccc12 | 12.6 µM (inconclusive) |
| COCCn1c(=O)c(-c2cccc(F)c2)nc2cncnc21 | 15.8 µM (inconclusive) |
| COc1ccccc1CNc1ncncc1-c1cccc(C#N)c1 | 0.316 µM (inconclusive) |
| COc1ccc(NC(=O)N2CC3(CCN(C(=O)c4ccc(OC)cc4)CC3)C2)cc1 | 25.1 µM (inconclusive) |
| Cc1c(NC(=O)NC(C)N2C(=O)C3C4C=CC(C4)C3C2=O)c(=O)n(-c2ccccc2)n1C (configuration not stated) | 25.1 µM (inconclusive) |
| O=C(c1cccc(F)c1)N1CCC2(CCCN(c3ccc(-c4ccccc4)cc3)C2)CC1 | 12.6 µM (inconclusive) |
| CC(=O)c1cc(CC=C(C)C)c(O)cc1O | 1.41 µM (inconclusive) |
| Nc1c2c(=O)oc(-c3ccccc3)cc2nn1-c1ccccc1 | 25.1 µM (inconclusive) |
| O=C1[C@H]2[C@H]3[C@H](O)[C@H](O)C/C(=N/OC[C@@H](O)COCc4ccco4)[C@@H]3CC[C@@H]2C(=O)N1C1CCCCC1 | 5.01 µM (inconclusive) |

Biological target: Cytochrome P450 2C19 (Homo sapiens, UniProt P33261)
Assay: Cytochrome panel assay with activity outcomes. Panel member name: p450-cyp2c19 Compounds with AC50 equal or less than 10 uM are considered active
Assay type: functional
Details: not given

Chain of Cytochrome P450 2C19 (P33261 whole entry): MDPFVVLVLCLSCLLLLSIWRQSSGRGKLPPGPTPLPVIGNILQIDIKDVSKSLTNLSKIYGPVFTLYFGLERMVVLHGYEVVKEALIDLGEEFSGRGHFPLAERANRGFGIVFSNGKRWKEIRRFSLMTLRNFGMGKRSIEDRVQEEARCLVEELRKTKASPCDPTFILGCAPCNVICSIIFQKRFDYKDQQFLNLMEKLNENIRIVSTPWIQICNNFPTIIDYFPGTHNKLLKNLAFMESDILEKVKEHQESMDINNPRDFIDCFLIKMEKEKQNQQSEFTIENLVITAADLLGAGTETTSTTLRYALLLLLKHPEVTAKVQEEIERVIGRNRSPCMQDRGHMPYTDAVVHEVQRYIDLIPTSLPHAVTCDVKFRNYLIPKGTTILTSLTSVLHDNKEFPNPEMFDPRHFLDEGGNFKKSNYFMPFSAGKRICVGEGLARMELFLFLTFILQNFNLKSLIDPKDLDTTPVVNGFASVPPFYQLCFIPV

| SMILES | AC50 |
| --- | --- |
| Cc1ccc(C)c(NC(=N)Nc2nc(C)cc(C)n2)c1 | inconclusive |
| C/C(=C\C=C/[C@@H](C)C(=O)O)[C@H]1CN[C@H](C(=O)O)[C@@H]1CC(=O)O | inconclusive |
| Nc1c(S(N)(=O)=O)cc(S(N)(=O)=O)cc1S(N)(=O)=O | inconclusive |
| C[N+](C)(C)c1ncnc2c1ncn2[C@@H]1CCCCO1 | inconclusive |
| Cc1cc(C(=O)Nc2c(C)n(C)n(-c3ccccc3)c2=O)c2ccccc2n1 | inconclusive |
| CCCc1cc(=O)[nH]c(=S)[nH]1 [PROPYLTHIOURACIL] | inconclusive |
| CSC(=N)NCCC[C@@H](N)C(=O)O [S-METHYL-D-THIOCITRULLINE] | inconclusive |

Same assay, conditions: read-out: AC50

| SMILES | AC50 |
| --- | --- |
| CCCc1ccc(-c2cc(C(=O)NN3CCOCC3)c3ccccc3n2)cc1 | 15.8 µM (inconclusive) |
| O=C(c1cccc(F)c1)N1CCC[C@@]2(CCN(c3ccncc3)C2)C1 | 2.51 µM (inconclusive) |
| Cc1ccsc1-c1nc(-c2ccccc2)c(-c2ccccc2)[nH]1 | 10 µM (inconclusive) |
| Cc1cccc2nc(C(F)(F)F)nc(=O)n12 | 28.2 µM (inconclusive) |
| COCCn1c(=O)c(-c2cccc(F)c2)nc2cncnc21 | 39.8 µM (inconclusive) |
| O=C(c1cccc(F)c1)N1CCC2(CCCN(c3ccc(-c4ccccc4)cc3)C2)CC1 | 20 µM (inconclusive) |
| COc1ccc(OC)c(CNC(=O)CCNC(=O)Cn2ccc3ccccc3c2=O)c1 | 31.6 µM (inconclusive) |
| Cc1nc2cnc(Oc3cccc(Cl)c3)nc2n(C2CC2)c1=O | 31.6 µM (inconclusive) |
| CC1(C)C2([N+](=O)[O-])CN3CC1([N+](=O)[O-])CN(C2)C3c1ccccc1 (configuration not stated) | 0.355 µM (inconclusive) |
| O=c1oc2ccccc2c(O)c1Cc1c(O)c2ccccc2oc1=O [DICUMAROL] | 10 µM (inconclusive) |

System: not listed separately
Assay: inhibitors of intracellular T. cruzi replication, confirmation, NIH3T3 host cells, beta-gal luminescence (AID 2044);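 also: intracellular parasites grown in NIH/3T3 mouse fibroblasts as host cells; luminescent beta-galactosidase reporter signal from transgenic T. cruzi replicating inside host cells; inhibitors lower the luminescence signal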
Assay type: functional, cell-based
Details: not given

| SMILES | EC50 |
| --- | --- |
| Cc1ccc(C)c(NC(=N)Nc2nc(C)cc(C)n2)c1 | 1.2 µM (active) |
| CC1=C(C(=O)N2CCc3ccccc32)C2(CCC(C)CC2)OC1=O (configuration not stated) | 2.67 µM (active) |
| CCCCSc1nc2sc3c(c2c(=O)n1-c1ccccc1)CCN(C)C3 | 0.143 µM (active) |
| Cc1ccc(N/C(SCc2ccccc2C)=C(/C#N)C(=O)NCc2ccco2)cc1C | 1.3 µM (active) |
| C=CCc1cc(Cl)ccc1OCCNCCN1CCOCC1 | 0.136 µM (active) |

Biological target: T1, Cytochrome P450 1A2 (Homo sapiens, UniProt P05177);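 also: PubChem cytochrome P450 panel assay, CYP1A2 panel member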
T1 sequence (P05177 whole entry): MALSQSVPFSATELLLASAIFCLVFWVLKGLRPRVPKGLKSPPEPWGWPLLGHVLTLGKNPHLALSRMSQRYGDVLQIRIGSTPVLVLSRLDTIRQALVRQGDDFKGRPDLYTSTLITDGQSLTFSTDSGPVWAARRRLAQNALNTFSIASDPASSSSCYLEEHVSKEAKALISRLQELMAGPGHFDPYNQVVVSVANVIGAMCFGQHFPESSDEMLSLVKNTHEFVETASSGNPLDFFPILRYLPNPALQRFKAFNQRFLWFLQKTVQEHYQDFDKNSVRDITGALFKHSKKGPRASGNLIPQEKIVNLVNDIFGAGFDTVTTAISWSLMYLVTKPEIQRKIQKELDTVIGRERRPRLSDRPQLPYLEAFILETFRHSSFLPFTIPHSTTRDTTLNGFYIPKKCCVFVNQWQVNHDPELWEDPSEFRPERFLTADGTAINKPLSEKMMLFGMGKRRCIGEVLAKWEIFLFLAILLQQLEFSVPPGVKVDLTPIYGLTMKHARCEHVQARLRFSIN
Details: not given

| SMILES | AC50 |
| --- | --- |
| CC1CCC(NC(=O)CC(C)(C)Cc2nc(O)c3ccccc3n2)CC1 (configuration not stated) | 22.4 µM (inconclusive) |
| Cc1ccc(C)c(NC(=N)Nc2nc(C)cc(C)n2)c1 | 14.1 µM (inconclusive) |
| COc1ccc(Oc2ncc3nc(CCc4ccccc4)c(=O)n(CCC#N)c3n2)cc1 | 6.31 µM (inconclusive) |
| Cc1noc(C)c1-c1cncnc1NCc1ccccc1 | 25.1 µM (inconclusive) |
| Cc1cccc2nc(C(F)(F)F)nc(=O)n12 | 0.0316 µM (inconclusive) |
| COC(=O)[C@@]1(Cc2ccc(OC)cc2)[C@H]2c3cc(C(=O)N4CCCC4)n(CCc4c[nH]c5ccc(OC)cc45)c3C[C@H]2CN1C(=O)c1ccccc1 | 10 µM (inconclusive) |
| CC[C@](N)(CCC(=O)O)C(=O)O | 20 µM (inconclusive) |
| OC(Cc1nc2ccccc2[nH]1)c1ccccc1Cl (configuration not stated) | 25.1 µM (inconclusive) |
| CN1C[C@@H](CS(=O)(=O)N(C)C)C[C@H]2c3cccc4c3c(cn4C)C[C@@H]21 | 25.1 µM (inconclusive) |
| CC(C)(C)c1nc(SCC(=O)Nc2ccc3c(c2)OCCO3)c2ccccc2n1 | 10 µM (inconclusive) |
| O=C1Nc2ccccc2C2=N[C@@H](CN3CCN(c4ccccc4)CC3)CN12 | 20 µM (inconclusive) |
| O=C(O)CN1C(=O)CN=C(c2ccccn2)c2cc(Cl)ccc21 | 1.26 µM (inconclusive) |
| COc1ncc2ncc(=O)n(CCC#N)c2n1 | 20 µM (inconclusive) |
| S=C=Nc1cccc(C2(N3CCCCC3)CCCCC2)c1 | 31.6 µM (inconclusive) |
| O=c1oc2ccccc2c(O)c1Cc1c(O)c2ccccc2oc1=O [DICUMAROL] | 12.6 µM (inconclusive) |

Biological target: T2, Rac GTPase-activating protein 1 (Homo sapiens, UniProt Q9H0H5)
T2 sequence (Q9H0H5 whole entry): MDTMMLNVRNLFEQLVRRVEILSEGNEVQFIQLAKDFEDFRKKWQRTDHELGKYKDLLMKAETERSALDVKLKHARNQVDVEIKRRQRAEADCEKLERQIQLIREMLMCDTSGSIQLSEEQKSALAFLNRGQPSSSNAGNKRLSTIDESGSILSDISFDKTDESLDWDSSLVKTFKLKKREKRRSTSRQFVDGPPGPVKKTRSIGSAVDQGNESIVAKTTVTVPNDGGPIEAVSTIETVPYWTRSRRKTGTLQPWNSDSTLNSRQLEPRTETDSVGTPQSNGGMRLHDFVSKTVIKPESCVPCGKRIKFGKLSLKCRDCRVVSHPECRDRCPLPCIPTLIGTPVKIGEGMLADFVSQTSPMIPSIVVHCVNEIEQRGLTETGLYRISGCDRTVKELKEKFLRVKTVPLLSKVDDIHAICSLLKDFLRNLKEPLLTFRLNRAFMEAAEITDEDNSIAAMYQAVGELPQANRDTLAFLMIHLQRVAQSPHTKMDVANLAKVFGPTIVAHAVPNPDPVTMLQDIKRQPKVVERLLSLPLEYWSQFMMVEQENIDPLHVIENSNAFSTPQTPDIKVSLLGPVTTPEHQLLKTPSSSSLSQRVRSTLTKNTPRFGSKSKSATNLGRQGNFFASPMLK
Assay: MgcRacGAP GTPase-activating activity inhibitors, confirmation, biochemical, ADP Hunter fluorescence, primary and confirmatory (AID 624330)
Assay type: functional
Details: not given

| SMILES | IC50 |
| --- | --- |
| Brc1cccc(CNCCc2ccc3c(c2)OCO3)c1 | 179 µM (active) |
| N#C/C(=C\c1cccnc1)C(=O)Nc1cccc2ccccc12 | 157 µM (active) |
| CCN1CCN(C(C)C(=O)NC2CCCCC2)CC1 (configuration not stated) | 75.6 µM (active) |
| CCN1CCN(CCCCOc2ccccc2F)CC1 | 70.1 µM (active) |
| CC(C)NCC#CCOc1ccc(Cl)cc1 | 162 µM (active) |
| Cc1cc(/C=C(\C#N)C(=O)N2CCCCC2)cc(C)c1O | 59.4 µM (active) |
| COc1ccc(N2CCN(CC(=O)Nc3cccc(S(=O)(=O)N4CCOCC4)c3)CC2)cc1 | 77.5 µM (active) |
| O=C(CC(c1ccccc1)c1ccccc1)Nc1ccc(O)cc1 | 47.2 µM (active) |
| CCOc1cc(/C=C2/NC(=O)N(Cc3ccccc3F)C2=O)ccc1O | 44.5 µM (active) |
| COc1cc(/C=C/C(=O)N[C@@H](Cc2c[nH]c3ccccc23)C(=O)O)ccc1O | 80 µM (active) |
| Cc1cc(C)c(C)c(OCCNCc2ccccc2)c1 | 105 µM (active) |
| COc1ccc(NCc2cccnc2)cc1 | 53.1 µM (active) |
| CCC(CC)N1CCN(C(=O)c2cccc(Cl)c2)CC1 | 193 µM (active) |
| CCOc1ccc(OCCOCCN2CCCC2)cc1 | 109 µM (active) |
| C=CCc1cc(Cl)ccc1OCCNCCN1CCOCC1 | 90.8 µM (active) |
| CSc1nc(C)c2c(n1)N(c1ccc(O)cc1)CC2 | 16.8 µM (active) |
| CCN(CC)c1ccc(NC(=O)CN2C(=O)NC3(CCc4ccccc43)C2=O)cc1 (configuration not stated) | 89.8 µM (active) |
| COc1cc(/C=C/C(=O)OCC(=O)NCCCc2ccccc2)ccc1O | 41.5 µM (active) |
| O=C(Cc1coc2cc(O)ccc12)NNC(=O)c1ccc(Br)s1 | 31.8 µM (active) |
| O=C(CCc1ccc(O)c(O)c1)N/N=C/c1ccc2c(c1)OCO2 | 91.7 µM (active) |
| COc1ccccc1N1CCN(/N=C/c2cc(OC)c(O)c(OC)c2)CC1 | 252 µM (active) |
| CCc1cc(/C(Cc2cscn2)=N\O)c(O)cc1O | 52 µM (active) |
| COc1cc(/C=N/NC(=O)CCN2CCN(C(c3ccccc3)c3ccccc3)CC2)ccc1O | 50.9 µM (active) |

Source: ChEMBL document CHEMBL1201862, “PubChem BioAssay data set” (2004)
